Data on two compounds can be found in US20090068290A1, “BIFEPRUNOX DOSES FOR TREATING SCHIZOPHRENIA” (priority 2006, published 2009).

The structures appear in SMILES notation.

Format in all cases: in vivo, human
Test [1] deals with adult subjects with schizophrenia. Description: PANSS total score, Clinical Study Three (6-week, olanzapine-referenced). The settings on record: Olanzapine 15 mg, LOCF, ITT. Here is the method:
(§1) There were four treatment arms in this study, approximately 144 subjects per arm. […] After completing the Single-Blind Placebo Lead-in Period of at least three days, bifeprunox-treated subjects were titrated from 0.25 mg up to 20 mg/day or 30 mg/day according to a standardized titration scheme over a seven- or eight-day period, respectively. When the assigned dose was reached, subjects were maintained at that dose for the remainder of the six week treatment period. […] Subjects were hospitalized (if not already inpatients) after eligibility for study entry was verified, starting from the Screening Visit until at least 10 days after Baseline. Subjects could be hospitalized longer than 10 days if considered medically necessary by the Investigator. Rating scale assessments for efficacy and abnormal movement disorders were done weekly except for Week 5. Safety assessments were performed at Screening, during treatment and at the end of the study. Subject satisfaction with study medication was assessed at Week 6. Samples of whole blood were obtained at Weeks 2, 4, and 6 for determination of bifeprunox in plasma.
Test Product, Dose and Mode of Administration: Bifeprunox tablets, total daily dose 20 mg or 30 mg (one 20 mg tablet and one 10 mg tablet) administered orally using a once daily dosing regimen.

The test system is the same in test [2]. Briefly: PANSS responder rates, Clinical Study Three. As for the experimental part: as §1
CLINICAL STUDY THREE. A PANSS responder was defined as a subject whose PANSS total score decreased by 20% or more from Baseline to Endpoint. As exploratory analyses, responder rates were also analyzed using a 30%, 35%, 40%, and 50% definition of responder.

The test system is the same in test [3]. Description: PANSS positive symptom subscale score, Clinical Study Three. Particulars: Olanzapine 15 mg, LOCF, ITT.
Source text: SECONDARY OBJECTIVES To assess the efficacy of bifeprunox in treating schizophrenia using the Positive Symptom sub-scale score of the PANSS, the Negative Symptom sub-scale score of the PANSS, the General Psychopathology sub-scale of the PANSS, Brief Psychiatric Rating Scale (BPRS) total score derived from the PANSS, BPRS psychosis score derived from the PANSS, the Clinical Global Impression Severity of Illness score (CGI-S), the Clinical Global Impression Improvement score (CGI-I), CGI-I responder rate, PANSS responder rate based on the PANSS total score, Calgary Depression Scale for Schizophrenia (CDSS), and Subject Satisfaction rating.
There were four treatment arms in this study, approximately 144 subjects per arm. […] After completing the Single-Blind Placebo Lead-in Period of at least three days, bifeprunox-treated subjects were titrated from 0.25 mg up to 20 mg/day or 30 mg/day according to a standardized titration scheme over a seven- or eight-day period, respectively. When the assigned dose was reached, subjects were maintained at that dose for the remainder of the six week treatment period. […] Subjects were hospitalized (if not already inpatients) after eligibility for study entry was verified, starting from the Screening Visit until at least 10 days after Baseline. Subjects could be hospitalized longer than 10 days if considered medically necessary by the Investigator. Rating scale assessments for efficacy and abnormal movement disorders were done weekly except for Week 5. […] Subject satisfaction with study medication was assessed at Week 6.
The test system is the same in test [4]. Briefly: CGI responder rate, Clinical Study Two. Particulars: LOCF. As for the experimental part: Notable differences were also observed between the 30 mg bifeprunox group and placebo for the change from baseline to endpoint in PANSS general psychopathology subscale score, BPRS total score, BPRS psychosis cluster score, PANSS responder rate, and CGI-I responder rate. In the study, a PANSS responder refers to a subject whose PANSS total score decreased by 20% or more from baseline to endpoint. A CGI-I responder refers to a subject who was categorized as “very much improved” or “much improved” in the CGI Global Improvement scale at endpoint.
Pharmacokinetic (PK) data of bifeprunox in schizophrenic subjects were also assessed and are presented in a separate report (combined with data from study S1543003).
Subjects who completed this study had the option to continue in the long-term. […] Risperidone-treated subjects were titrated from 2 mg to 6 mg daily over a three-day period and were subsequently maintained at 6 mg/day for the remainder of the treatment period. […] Blood samples were also obtained at Screening/Baseline, Week 3, and Week 6 for clinical laboratory assessments.
CLINICAL STUDY TWO: A CGI responder is defined as a subject who is categorized as “very much improved” or “much improved” on the CGI Improvement scale. […] A notable difference between the 30 mg bifeprunox group and placebo was seen (p=0.039).

Test [5] shares this test system. Briefly: PANSS positive subscale score, Clinical Study One. Particulars: Risperidone 6 mg, ITT. Here is the method:
There were five treatment groups in this study. […] Study medication was administered once daily. After Baseline measurements were performed, the titration phase was begun. Bifeprunox treated subjects were titrated up to 5 mg, 10 mg or 20 mg according to a standardized titration schedule (Day 1: 0.125 mg, Day 2: 0.25 mg, Day 3: 0.5 mg, Day 4: 1.0 mg, Day 5: 2.0 mg, Day 6: 5.0 mg, Day 7: 10.0 mg, Day 8: 20 mg). When the assigned dose was reached, subjects were maintained at that dose for the remainder of the six-week treatment period.
The change in the Positive and Negative Symptom Scale (PANSS) total score, from baseline to endpoint, was the primary outcome measure. Secondary efficacy measures included: PANSS positive, PANSS negative, PANSS general psychopathology (GPP) score, PANSS-derived Brief Psychiatric Rating Scale (BPRS) score, Clinical Global Impressions-Severity of Illness (CGI-S), CGI-Improvement (CGI-I) scores, and responder rates. Safety and tolerability evaluations included extrapyramidal symptoms (EPS), weight gain, lipid profile, and serum prolactin.

For the compound `Cc1cc2c(s1)Nc1ccccc1N=C2N1CCN(C)CC1` [Olanzapine, olanzapine, reference compound], the “Change from Baseline in PANSS Total Score, Mean (SD)” value in test [1] (Week 1) was −9.3 (11.2); in test [1] (Week 2), −15.1 (13.6); in test [1] (Week 3), −19.3 (15.8); in test [1] (Week 4) it was −20.0 (16.5); in test [1] (Week 6/Endpoint), −22.0 (18.2). The “Change from Baseline in PANSS Total Score, Median” value in test [1] (Week 1) is listed as −6; in test [1] (Week 2), −12; in test [1] (Week 3), −18; in test [1] (Week 4), −18; in test [1] (Week 6/Endpoint), −21. For the same compound, the “PANSS 20% definition response rate No, %” value in test [2] (15 mg, Week 6/Endpoint, LOCF) was 46%. The “PANSS 20% definition response rate Yes, %” value in test [2] (15 mg, Week 6/Endpoint, LOCF) was found to be 54%. Also, the “20% PANSS responder rate” value in test [2] (olanzapine 15 mg, Endpoint LOCF) was found to be 54%. Moreover, the “Change from Baseline in PANSS Positive Symptom Subscale Score, Mean (SD)” value in test [3] (Week 1) is −3.0 (3.3); in test [3] (Week 2) it was −4.9 (4.0); in test [3] (Week 3), −6.0 (4.9); in test [3] (Week 4), −6.4 (5.4); in test [3] (Week 6/Endpoint), −7.0 (5.8). The “Change from Baseline in PANSS Positive Symptom Subscale Score, Median” value in test [3] (Week 1) is recorded as −2; in test [3] (Week 2), −5; in test [3] (Week 3) it was −6; in test [3] (Week 4) it was −7; in test [3] (Week 6/Endpoint) it was −7.

As for `Cc1nc2n(c(=O)c1CCN1CCC(c3noc4cc(F)ccc34)CC1)CCCC2` [Risperidone, risperidone, reference compound], the “CGI Responder at Endpoint No, %” value in test [4] (6 mg) is recorded as 48%. Also, the “CGI Responder at Endpoint Yes, %” value in test [4] (6 mg) was found to be 52%. For the same compound, the “CGI-I responder rate (subjects much or very much improved) at Endpoint” value in test [4] (risperidone 6 mg) was found to be 52%. Besides, the “Change from Baseline in PANSS Positive Subscale Score, Mean (S.D.)” value in test [5] (Endpoint LOCF) was −5.3 (4.8); in test [5] (Week 1, LOCF), −2.7 (3.4); in test [5] (Week 2, LOCF), −4.3 (4.2); in test [5] (Week 3, LOCF), −5.0 (4.6); in test [5] (Week 4, LOCF), −4.9 (4.6). Besides, the “Change from Baseline in PANSS Positive Subscale Score, Median” value in test [5] (Endpoint LOCF) is −5; in test [5] (Week 1, LOCF) it was −2; in test [5] (Week 2, LOCF), −4; in test [5] (Week 3, LOCF) it was −5; in test [5] (Week 4, LOCF), −4.
